In the supplement of paper PMC8617591:

What was measured:
[1] = system: Mycobacterium tuberculosis Erdman (autoluminescent); test: total FIC50 (Loewe) at 50% inhibition, three-drug combination (log2); higher = more antagonistic
Procedure: (§1)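 DiaMOND equipotent three-drug combination dose responses (10 doses, 1.5- or 2-fold spacing, centred on IC90) against autoluminescent M. tuberculosis Erdman in 8 in vitro models. Read-out is OD600, or luminescence for the intracellular and dormancy models, normalised to untreated wells. Hill-fit Einf, AUC25 and GRinf are potency metrics; FIC50 and FIC90 are total Loewe fractional inhibitory concentrations as log2 (negative = synergy).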

[2] = system: Mycobacterium tuberculosis Erdman (autoluminescent); test: total FIC90 (Loewe) at 90% inhibition, three-drug combination (log2); higher = more antagonistic
Procedure: as §1

[3] = system: Mycobacterium tuberculosis Erdman (autoluminescent); test: Einf, fitted maximum growth inhibition of three-drug combination (fraction); higher = stronger maximal inhibition
Procedure: as §1

[4] = system: Mycobacterium tuberculosis Erdman (autoluminescent); test: AUC25, normalised area under dose response up to IC25 (three-drug combination) (fraction (0-1)); higher = more potent at low dose
Procedure: as §1

[5] = system: Mycobacterium tuberculosis Erdman (autoluminescent); test: GRinf, maximum normalised growth rate inhibition (three-drug combination) (unitless (-1 to 1)); higher = less effect (negative = killing)
Procedure: as §1

COc1nc2ccc(Br)cc2cc1[C@@H](c1ccccc1)[C@@](O)(CCN(C)C)c1cccc2ccccc12 [bedaquiline] + CO[C@H]1/C=C/O[C@@]2(C)Oc3c(C)c(O)c4c(O)c(c(/C=N/N5CCN(C6CCCC6)CC5)c(O)c4c3C2=O)NC(=O)/C(C)=C\C=C\[C@H](C)[C@H](O)[C@@H](C)[C@@H](O)[C@@H](C)[C@H](OC(C)=O)[C@@H]1C [rifapentine] + CO[C@H]1/C=C/O[C@@]2(C)Oc3c(C)c(O)c4c(O)c(c(/C=N/N5CCN(C)CC5)c(O)c4c3C2=O)NC(=O)/C(C)=C\C=C\[C@H](C)[C@H](O)[C@@H](C)[C@@H](O)[C@@H](C)[C@H](OC(C)=O)[C@@H]1C [rifampicin]
Details | AUC25, [4] | Einf, [3] | GRinf, [5] | total FIC50, [1] | total FIC90, [2]
in vitro model: acidic pH 5.7, time point: constant (~7 days, model-specific) | 0.0935 | 0.893 | -0.273 | 0.903 | –
in vitro model: acidic pH 5.7, time point: terminal (~4-5 doublings, model-specific) | 0.082 | 0.985 | -0.265 | 0.765 | 0.574
in vitro model: intracellular J774, time point: constant = terminal | – | 0.925 | -0.129 | – | 0.499

Details | AUC25, [4] | Einf, [3] | GRinf, [5] | total FIC50, [1] | total FIC90, [2]
in vitro model: butyrate, time point: constant (~7 days, model-specific) | 0.119 | 0.965 | -0.195 | 0.199 | -0.101
in vitro model: butyrate, time point: terminal (~4-5 doublings, model-specific) | 0.102 | 0.987 | -0.131 | 0.144 | 0.454
in vitro model: cholesterol 0.05 mM, time point: constant (~7 days, model-specific) | 0.118 | 0.73 | -0.233 | 0.198 | –
in vitro model: cholesterol 0.05 mM, time point: terminal (~4-5 doublings, model-specific) | 0.0915 | 0.927 | -0.216 | 0.249 | 0.0937
in vitro model: cholesterol-high 0.2 mM, time point: constant (~7 days, model-specific) | 0.0646 | 0.957 | -0.49 | 0.444 | -0.0134
in vitro model: cholesterol-high 0.2 mM, time point: terminal (~4-5 doublings, model-specific) | 0.0574 | 0.998 | -0.604 | 0.544 | 0.3
in vitro model: dormancy (butyrate + nitrate, low O2), time point: constant (~7 days, model-specific) | 0.0847 | 0.905 | 0.174 | 0.141 | 0.723
in vitro model: dormancy (butyrate + nitrate, low O2), time point: terminal (~4-5 doublings, model-specific) | 0.0726 | 0.982 | -0.165 | 0.273 | 0.653
in vitro model: standard 7H9 glycerol, time point: constant = terminal | 0.0706 | 0.924 | -0.0268 | 0.258 | 0.35
in vitro model: valerate, time point: constant (~7 days, model-specific) | 0.046 | 0.873 | -0.0628 | 0.679 | –
in vitro model: valerate, time point: terminal (~4-5 doublings, model-specific) | 0.028 | 0.951 | -0.0371 | 0.579 | 0.302

COc1nc2ccc(Br)cc2cc1[C@@H](c1ccccc1)[C@@](O)(CCN(C)C)c1cccc2ccccc12 [bedaquiline] + COc1c(N2C[C@@H]3CCCN[C@@H]3C2)c(F)cc2c(=O)c(C(=O)O)cn(C3CC3)c12 [moxifloxacin] + CO[C@H]1/C=C/O[C@@]2(C)Oc3c(C)c(O)c4c(O)c(c(/C=N/N5CCN(C6CCCC6)CC5)c(O)c4c3C2=O)NC(=O)/C(C)=C\C=C\[C@H](C)[C@H](O)[C@@H](C)[C@@H](O)[C@@H](C)[C@H](OC(C)=O)[C@@H]1C [rifapentine]
Details | AUC25, [4] | Einf, [3] | GRinf, [5] | total FIC50, [1] | total FIC90, [2]
in vitro model: acidic pH 5.7, time point: constant (~7 days, model-specific) | 0.0678 | 0.851 | -0.0721 | 0.823 | –
in vitro model: acidic pH 5.7, time point: terminal (~4-5 doublings, model-specific) | 0.0653 | 0.994 | -0.308 | 1.07 | 0.708
in vitro model: intracellular J774, time point: constant = terminal | – | 0.932 | -0.235 | – | 0.946

Details | AUC25, [4] | Einf, [3] | GRinf, [5] | total FIC50, [1] | total FIC90, [2]
in vitro model: butyrate, time point: constant (~7 days, model-specific) | 0.1 | 0.952 | -0.132 | 0.844 | 0.676
in vitro model: butyrate, time point: terminal (~4-5 doublings, model-specific) | 0.0773 | 0.977 | -0.0985 | 0.876 | 0.991
in vitro model: cholesterol 0.05 mM, time point: constant (~7 days, model-specific) | 0.0837 | 0.716 | -0.256 | 0.531 | –
in vitro model: cholesterol 0.05 mM, time point: terminal (~4-5 doublings, model-specific) | 0.0604 | 0.905 | -0.183 | 0.923 | 0.462
in vitro model: cholesterol-high 0.2 mM, time point: constant (~7 days, model-specific) | 0.0607 | 0.949 | -0.394 | 0.723 | 0.4
in vitro model: cholesterol-high 0.2 mM, time point: terminal (~4-5 doublings, model-specific) | 0.0498 | 1 | -0.57 | 0.949 | 0.645
in vitro model: dormancy (butyrate + nitrate, low O2), time point: constant (~7 days, model-specific) | 0.0857 | 0.928 | 0.0745 | 0.868 | 1.67
in vitro model: dormancy (butyrate + nitrate, low O2), time point: terminal (~4-5 doublings, model-specific) | 0.0736 | 0.997 | -0.28 | 1.05 | 1.35
in vitro model: standard 7H9 glycerol, time point: constant = terminal | 0.0761 | 0.966 | -0.0766 | 0.73 | 0.338
in vitro model: valerate, time point: constant (~7 days, model-specific) | 0.063 | 0.915 | -0.117 | 1.01 | –
in vitro model: valerate, time point: terminal (~4-5 doublings, model-specific) | 0.0335 | 0.946 | -0.0711 | 0.995 | 0.711
